The source of these data is patent US20250179055A1, “Substituted 2-(pyrrolidine-3-yl)acetic acid derivative, preparation method and use thereof” (INNOVSTONE THERAPEUTICS LIMITED, priority 2023, published 2025).

Lp(a) assembly in HepG2 cells overexpressing ApoA protein, sequence (P08519 20-2040): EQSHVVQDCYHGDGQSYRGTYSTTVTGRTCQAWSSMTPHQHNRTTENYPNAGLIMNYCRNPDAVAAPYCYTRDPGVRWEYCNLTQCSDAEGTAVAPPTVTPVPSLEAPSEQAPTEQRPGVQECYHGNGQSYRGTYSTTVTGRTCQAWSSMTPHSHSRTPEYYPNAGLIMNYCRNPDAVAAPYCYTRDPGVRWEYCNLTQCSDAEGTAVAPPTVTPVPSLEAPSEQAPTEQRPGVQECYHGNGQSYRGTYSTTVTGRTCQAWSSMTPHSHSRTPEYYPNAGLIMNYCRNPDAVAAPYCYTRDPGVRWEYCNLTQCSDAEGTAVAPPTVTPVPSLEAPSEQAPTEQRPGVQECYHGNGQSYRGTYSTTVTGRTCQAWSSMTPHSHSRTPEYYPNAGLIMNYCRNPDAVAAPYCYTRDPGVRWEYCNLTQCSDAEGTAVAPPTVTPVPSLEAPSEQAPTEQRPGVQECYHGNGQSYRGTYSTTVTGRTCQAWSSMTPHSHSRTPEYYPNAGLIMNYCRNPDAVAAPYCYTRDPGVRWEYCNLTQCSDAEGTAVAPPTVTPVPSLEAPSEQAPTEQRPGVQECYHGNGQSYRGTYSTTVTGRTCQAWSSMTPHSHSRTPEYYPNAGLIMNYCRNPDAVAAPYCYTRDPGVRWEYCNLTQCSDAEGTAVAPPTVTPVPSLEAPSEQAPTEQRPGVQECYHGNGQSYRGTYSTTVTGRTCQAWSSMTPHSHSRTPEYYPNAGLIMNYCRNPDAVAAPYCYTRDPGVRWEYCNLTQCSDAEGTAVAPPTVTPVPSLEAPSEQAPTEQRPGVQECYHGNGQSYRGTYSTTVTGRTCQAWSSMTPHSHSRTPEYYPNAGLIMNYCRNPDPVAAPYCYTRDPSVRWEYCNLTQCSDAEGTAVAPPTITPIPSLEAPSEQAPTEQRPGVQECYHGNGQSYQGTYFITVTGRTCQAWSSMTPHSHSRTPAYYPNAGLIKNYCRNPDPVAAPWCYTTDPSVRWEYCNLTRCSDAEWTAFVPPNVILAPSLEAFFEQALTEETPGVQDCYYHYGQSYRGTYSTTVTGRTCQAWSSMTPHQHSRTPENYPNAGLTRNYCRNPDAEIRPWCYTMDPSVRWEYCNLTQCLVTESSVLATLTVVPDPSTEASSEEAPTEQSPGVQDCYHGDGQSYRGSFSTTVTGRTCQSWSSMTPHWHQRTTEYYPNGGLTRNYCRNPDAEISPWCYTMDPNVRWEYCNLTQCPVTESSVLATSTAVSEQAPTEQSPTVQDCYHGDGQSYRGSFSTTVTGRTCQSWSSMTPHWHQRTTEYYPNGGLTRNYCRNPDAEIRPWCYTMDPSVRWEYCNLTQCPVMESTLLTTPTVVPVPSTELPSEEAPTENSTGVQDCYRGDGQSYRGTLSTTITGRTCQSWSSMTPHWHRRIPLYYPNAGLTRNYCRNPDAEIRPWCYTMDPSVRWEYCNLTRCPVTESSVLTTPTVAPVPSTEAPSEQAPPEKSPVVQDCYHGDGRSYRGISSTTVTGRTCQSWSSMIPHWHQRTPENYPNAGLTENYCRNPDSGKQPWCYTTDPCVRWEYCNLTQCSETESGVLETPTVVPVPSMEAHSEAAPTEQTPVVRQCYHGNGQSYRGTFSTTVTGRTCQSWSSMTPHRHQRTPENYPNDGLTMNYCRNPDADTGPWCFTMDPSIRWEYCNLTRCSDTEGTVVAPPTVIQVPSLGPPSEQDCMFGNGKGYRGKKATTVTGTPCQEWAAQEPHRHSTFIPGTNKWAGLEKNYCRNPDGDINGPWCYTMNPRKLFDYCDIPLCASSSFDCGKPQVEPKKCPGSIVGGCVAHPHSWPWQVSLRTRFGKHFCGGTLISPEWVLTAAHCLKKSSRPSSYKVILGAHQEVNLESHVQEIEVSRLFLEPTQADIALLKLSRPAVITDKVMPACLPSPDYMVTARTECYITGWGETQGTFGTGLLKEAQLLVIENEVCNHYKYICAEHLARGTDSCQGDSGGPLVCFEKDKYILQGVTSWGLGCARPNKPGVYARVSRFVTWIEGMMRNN

The target of the first test is Lp(a) assembly in HepG2 cells overexpressing ApoA protein (Homo sapiens (Human), UniProt P08519). The test can be described thus: ELISA assay on screening Lp(a) assembly inhibition. The following applies: HepG2 cells overexpressing ApoA protein, 24 h, ELISA of supernatant. It counts as cell-based. How it is done:
Test Example 1 and Methods of ELISA Assay on Screening Lp(a) Assembly Inhibition
• 1) Preheated the culture media, DPBS, and pancreatin in a 37° C. water bath in advance. • 2) Digested cells with pancreatin, transferred the cell suspension to a 15 mL centrifuge tube, and centrifuged at 1000 rpm for 5 min. • 3) Resuspended the cells with culture media and transferred the cell suspension to a new T75 cell culture flask. • 4) Cultured at 37° C. in a 5% CO2 incubator.
• 1) Seeded HepG2 cells overexpressing of ApoA protein into a 96-well plate at 100 μL per well and incubated overnight for attachment. • 2) Replaced with fresh culture media the next day, then added diluted compounds, and cultured the cell plate in a 5% CO2, 37° C. incubator for 24 h.
• 1) Added 10 μL of 1.5 M EACA to each well. • 2) Centrifuged at 1000 rpm for 1 min, and transferred 100 μL of cell culture supernatant to a pre-coated ELISA plate.
• 1) Added 100 μL of capture antibody to each well of a pre-coated ELISA plate and incubated overnight at 25° C. • 2) Added 300 μL of washing solution to each well and washed 5 times for 1 min each time. • 3) Added 100 μL of blocking solution to each well and incubated at 25° C. for 2 h. • 4) Added 300 μL of washing solution to each well and washed 5 times for 1 min each time. • 5) Added 100 μL of sample to each well and incubated at 25° C. for 1 h. • 6) Added 300 μL of washing solution to each well and washed 5 times for 1 min each time. • 7) Added 100 μL of detection antibody to each well and incubated at 25° C. for 1 h. • 8) Added 300 μL of washing solution to each well and washed 5 times for 1 min each time. • 9) Added 100 μL substrate solution (Color Reagent A: Color Reagent B, 1:1) to each well and incubated for 20 min at 25° C. in the dark. • 10) Added […] of stop solution to each well, gently blowed and sucked several times with the pipette tip, and read within 5 min.
[formula] • X: cpd concentration • Y: inhibition % • Top and Bottom: Plateaus in same units as Y • log IC50: same log units as X • HillSlope: Slope factor or Hill slope
On the technique in general: ELISA stands for enzyme-linked immunosorbent assay.
One may read the IC50 as the concentration that gives 50% inhibition. High values mean weaker potency in that assay, low ones greater potency in that assay. Turning to `O=C(O)[C@@H](Cc1cccc(CCC(=O)N(CCOc2cccc(C[C@H](C(=O)O)[C@H]3CCNC3)c2)Cc2cccc(C[C@H](C(=O)O)[C@H]3CCNC3)c2)c1)[C@H]1CCNC1` [Compound 140, (S)-3-(3-(3-((3-((S)-2-carboxy-2-((R)-pyrrolidin-3-yl)ethyl)benzyl)(2-(3-((S)-2-carboxy-2-((R)-pyrrolidin-3-yl)ethyl)phenoxy)ethyl)amino)-3-oxopropyl)phenyl)-2-((R)-pyrrolidin-3-yl)propanoic acid], the IC50 is 0.79 nM.

The molecule `O=C(O)[C@@H](Cc1cccc(CNC(=O)N(CCOc2cccc(C[C@H](C(=O)O)[C@H]3CCNC3)c2)Cc2cccc(C[C@H](C(=O)O)[C@H]3CCNC3)c2)c1)[C@H]1CCNC1` [Compound 141, (S)-3-(3-(2-(1,3-bis(3-((S)-2-carboxy-2-((R)-pyrrolidin-3-yl)ethyl)benzyl)ureido)ethoxy)phenyl)-2-((R)-pyrrolidin-3-yl)propanoic acid] registered an IC50 of 1.02 nM.

The molecule `O=C(Cc1cccc(C[C@H](C(=O)O)[C@H]2CCNC2)c1)NCCOc1cccc(C[C@H](C(=O)O)[C@H]2CCNC2)c1` [Compound 142, (S)-3-(3-(2-((2-(3-((S)-2-carboxy-2-((R)-pyrrolidin-3-yl)ethyl)phenoxy)ethyl)amino)-2-oxoethyl)phenyl)-2-((R)-pyrrolidin-3-yl)propanoic acid] returned an IC50 of 3.19 nM.

Take `O=C(O)[C@@H](Cc1noc2cc(CN(Cc3ccc4c(C[C@H](C(=O)O)[C@H]5CCNC5)noc4c3)Cc3ccc4c(C[C@H](C(=O)O)[C@H]5CCNC5)noc4c3)ccc12)[C@H]1CCNC1` [Compound 144, (2S,2′S,2″S)-3,3′,3″-((nitrilotris(methylene))tris(benzo[d]isoxazole-6,3-diyl))tris(2-((R)-pyrrolidin-3-yl)propanoic acid)]: the IC50 was 1.18 nM.

Regarding `O=C(O)[C@@H](Cc1cccc(COC(=O)N(CCOc2cccc(C[C@H](C(=O)O)[C@H]3CCNC3)c2)Cc2cccc(C[C@H](C(=O)O)[C@H]3CCNC3)c2)c1)[C@H]1CCNC1` [Compound 145, (S)-3-(3-(2-((3-((S)-2-carboxy-2-((R)-pyrrolidin-3-yl)ethyl)benzyl)(((3-((S)-2-carboxy-2-((R)-pyrrolidin-3-yl)ethyl)benzyl)oxy)carbonyl)amino)ethoxy)phenyl)-2-((R)-pyrrolidin-3-yl)propanoic acid], the IC50 was 1.72 nM.

Molecule `O=C(O)[C@@H](Cc1cccc(CC(=O)N(CCNc2cccc(C[C@H](C(=O)O)[C@H]3CCNC3)c2)Cc2cccc(C[C@H](C(=O)O)[C@H]3CCNC3)c2)c1)[C@H]1CCNC1` [Compound 146, (S)-3-(3-(2-((3-((S)-2-carboxy-2-((R)-pyrrolidin-3-yl)ethyl)benzyl)(2-((3-((S)-2-carboxy-2-((R)-pyrrolidin-3-yl)ethyl)phenyl)amino)ethyl)amino)-2-oxoethyl)phenyl)-2-((R)-pyrrolidin-3-yl)propanoic acid] registered an IC50 of 0.93 nM.

`O=C(O)[C@@H](Cc1cccc(CCC(=O)N(CCNc2cccc(C[C@H](C(=O)O)[C@H]3CCNC3)c2)Cc2cccc(C[C@H](C(=O)O)[C@H]3CCNC3)c2)c1)[C@H]1CCNC1` [Compound 147, (S)-3-(3-(3-((3-((S)-2-carboxy-2-((R)-pyrrolidin-3-yl)ethyl)benzyl)(2-((3-((S)-2-carboxy-2-((R)-pyrrolidin-3-yl)ethyl)phenyl)amino)ethyl)amino)-3-oxopropyl)phenyl)-2-((R)-pyrrolidin-3-yl)propanoic acid] showed an IC50 of 0.86 nM.

`O=C(O)[C@@H](Cc1cccc(CCC(=O)N(CCOc2cccc(C[C@H](C(=O)O)[C@H]3CCNC3)c2)CCOc2cccc(C[C@H](C(=O)O)[C@H]3CCNC3)c2)c1)[C@H]1CCNC1` [Compound 148, (2S,2′S)-3,3′-(((((3-(3-((S)-2-carboxy-2-((R)-pyrrolidin-3-yl)ethyl)phenyl)propanoyl)azanediyl)bis(ethane-2,1-diyl))bis(oxy))bis(3,1-phenylene))bis(2-((R)-pyrrolidin-3-yl)propanoic acid)] yielded an IC50 of 1.5 nM.

For the molecule `O=C(O)[C@@H](Cc1cccc(OCc2cc(COc3cccc(C[C@H](C(=O)O)[C@H]4CCNC4)c3)cc(COc3cccc(C[C@H](C(=O)O)[C@H]4CCNC4)c3)c2)c1)[C@H]1CCNC1` [Compound 149, (2S,2′S,2″S)-3,3′,3″-(((benzene-1,3,5-triyltris(methylene))tris(oxy))tris(benzene-3,1-diyl))tris(2-((R)-pyrrolidin-3-yl)propanoic acid)], the IC50 was 2.53 nM.

On to `O=C(O)[C@@H](Cc1cncc(CC(=O)N(CCOc2cncc(C[C@H](C(=O)O)[C@H]3CCNC3)c2)Cc2cncc(C[C@H](C(=O)O)[C@H]3CCNC3)c2)c1)[C@H]1CCNC1` [Compound 153, (S)-3-(5-(2-(2-(5-((S)-2-carboxy-2-((R)-pyrrolidin-3-yl)ethyl)pyridin-3-yl)-N-((5-((S)-2-carboxy-2-((R)-pyrrolidin-3-yl)ethyl)pyridin-3-yl)methyl)acetamido)ethoxy)pyridin-3-yl)-2-((R)-pyrrolidin-3-yl)propanoic acid], for which the IC50 was determined as 2.91 nM.

Take `O=C(O)[C@@H](Cc1cccc(CC(=O)N(CCSc2cccc(C[C@H](C(=O)O)[C@H]3CCNC3)c2)Cc2cccc(C[C@H](C(=O)O)[C@H]3CCNC3)c2)c1)[C@H]1CCNC1` [Compound 158, (S)-3-(3-(2-((3-((S)-2-carboxy-2-((R)-pyrrolidin-3-yl)ethyl)benzyl)(2-((3-((S)-2-carboxy-2-((R)-pyrrolidin-3-yl)ethyl)phenyl)thio)ethyl)amino)-2-oxoethyl)phenyl)-2-((R)-pyrrolidin-3-yl)propanoic acid]: it took 1.65 nM to reach half-maximal inhibition (IC50).

For the molecule `O=C(O)[C@@H](Cc1cccc(CC(=O)N(CCOc2cccc(C[C@H](C(=O)O)[C@@H]3CCNC3)c2)Cc2cccc(C[C@H](C(=O)O)[C@@H]3CCNC3)c2)c1)[C@@H]1CCNC1` [Compound 210, (S)-3-(3-(2-((3-((S)-2-carboxy-2-((S)-pyrrolidin-3-yl)ethyl)benzyl)(2-(3-((S)-2-carboxy-2-((S)-pyrrolidin-3-yl)ethyl)phenoxy)ethyl)amino)-2-oxoethyl)phenyl)-2-((S)-pyrrolidin-3-yl)propanoic acid], half-maximal inhibition (IC50) required 1.52 nM.

The next test has as its system serum Lp(a). The test can be described thus: Humanized mouse Lp(a) inhibition test. The class given is in vivo, humanized Lp(a) transgenic mouse. The following applies: 5 mg/kg oral once daily for 3 days, blood 8 h after last dose, humanized Lp(a) mice. How it is done: The in vivo pharmacodynamics of the compounds in reducing Lp(a) was evaluated in a humanized Lp(a) transgenic mouse model. Lp(a) mice were obtained by crossing mice expressing humanized apoB-100 with mice expressing humanized apo(a) containing 16 Kringle repeats. Female mice aged 8-9 weeks were selected for the test. Housing conditions: standard light cycle (12 h light/12 h dark), temperature 20-25° C., humidity 40-70%, free access to water and normal diet. is One day before the test, mice were divided into vehicle control group and test article group (n=5/group) according to body weight and baseline plasma Lp(a) concentration. Mice were orally administered with vehicle (normal saline, 10 mL/kg) or test compound (prepared with normal saline to 3 or 0.5 mg/mL, each mouse received 10 mL/kg), once daily (9:00 am) for 3 consecutive days, and blood was collected to determine the change of serum Lp(a). Eight hours after the last dose, 10 μL of blood was collected from the tail vein and transferred to a 1.5 mL centrifuge tube containing 90 μL of normal saline, mixed well, and left to stand on ice for 30 min. The above samples were centrifuged at 4° C., 3000 rpm for 10 min, and the supernatant was collected and placed on ice. The Lp(a) concentration in the supernatant was measured by double-antibody sandwich ELISA using an anti-apo(a) capture antibody and an HRP-conjugated anti-ApoB detection antibody, with TMB for color development. The reaction was stopped with 1 N sulfuric acid, and the OD value was read at 450 nm on a Tecan microplate reader. Inhibition rate was calculated for each dosing group. Inhibition rate (%)=(vehicle control group Lp(a) concentration or self pre-dose Lp(a) concentration post-dose Lp(a) concentration)/vehicle control group Lp(a) concentration or self pre-dose Lp(a) concentration*100.
As to `O=C(O)[C@@H](Cc1cccc(CCN(CCOc2cccc(C[C@H](C(=O)O)[C@H]3CCNC3)c2)C(=O)Oc2cccc(C[C@H](C(=O)O)[C@H]3CCNC3)c2)c1)[C@H]1CCNC1` [Compound 162, (S)-3-(3-(2-((3-((S)-2-carboxy-2-((R)-pyrrolidin-3-yl)ethyl)phenethyl)((3-((S)-2-carboxy-2-((R)-pyrrolidin-3-yl)ethyl)phenoxy)carbonyl)amino)ethoxy)phenyl)-2-((R)-pyrrolidin-3-yl)propanoic acid], the “Lp(a) Inhibition Rate” value is listed as 79%.

On to `O=C(O)[C@@H](Cc1cccc(OCCN(CCOc2cccc(C[C@H](C(=O)O)[C@H]3CCNC3)c2)C(=O)Oc2cccc(C[C@H](C(=O)O)[C@H]3CCNC3)c2)c1)[C@H]1CCNC1` [Compound 163, (2S,2′S)-3,3′-((((((3-((S)-2-carboxy-2-((R)-pyrrolidin-3-yl)ethyl)phenoxy)carbonyl)azanediyl)bis(ethane-2,1-diyl))bis(oxy))bis(3,1-phenylene))bis(2-((R)-pyrrolidin-3-yl)propanoic acid)], for which the “Lp(a) Inhibition Rate” value was 81%.
